# Assay results: ChEMBL document CHEMBL1150121, “A new cytotoxic calyculinamide derivative, geometricin A, from the Australian sponge Luffariella geometrica” (2002)
# Key:
# Type in all cases: functional
# Microbotryum violaceum = assay: Antifungal activity against Microbotryum violaceum at 50 ug/disk by agar diffusion test; conditions: read-out: IZ
# [Chlorella] fusca = Antialgal activity against Chlorella fusca at 50 ug/disk by agar diffusion test; conditions: Scenedesmus fuscus; read-out: IZ
# HepG2 = assay: Growth inhibition of human HepG2 cells
# [1] = Growth inhibition of human HM02 cells
smiles,measurement,setting,value
COC(CC(O)C(C)C(O)C(C)/C=C(C)/C(C)=C/CC/C(C)=C\C(N)=O)[C@H]1O[C@]2(C[C@H](O)[C@H](C)[C@H](C/C=C/c3coc(C)n3)O2)C(C)(C)[C@H]1OP(=O)(O)O (stereo partly specified) [GEOMETRICIN A],zone of inhibition at 50 µg/disc,Microbotryum violaceum,5 mm
same,zone of inhibition at 50 µg/disc,[Chlorella] fusca,5 mm
same,GI50,HepG2,2.8 µg/mL
same,TGI,HepG2,8.8 µg/mL
same,GI50,[1],1.7 µg/mL
same,TGI,[1],3.2 µg/mL
